Data on 1 compound can be found in patent US20090306093A1, “METHOD FOR TREATING PATIENT HAVING BENIGN PROSTATE HYPERPLASIA” (KAOHSIUNG MEDICAL UNIVERSITY, priority 2008, published 2009).

Where “and” joins values, the source holds several entries; their conditions need not be identical. Identical values can stand only once.

For one assay, the system named is a1-adrenoceptor. As to the kind of experiment: Antagonism of phenylephrine-induced contraction in isolated rat prostate strips. Particulars: against phenylephrine, KMUP-1 0.01-1 μM. As to the method:
Smooth muscle contractility of isolated Wistar rat prostate was used to evaluate the possible involvement of a1-adrenoceptor antagonism by KMUP-1. KMUP-1 (0.01-1 μM) or vehicle was added to organ bath, containing the Tyrode solution, for 30 minutes after a concentration-response curve to phenylephrine (0.001-100 μM) was obtained.
Concentration-response curves of phenylephrine were dose-dependently parallel-shifted to the right by KMUP-1.

Assay [1] concerns phenylephrine (10 μM) pre-contracted rat isolated prostate. As to the kind of experiment: Relaxation of phenylephrine pre-contracted rat isolated prostate strips (isometric tension). As to the method: The rat isolated prostate tissue was prepared as previously described with modifications^[10]. Briefly, Wistar rats (300-400 g) were killed with pentobarbital sodium (30 mg/kg) and the ventral part of their prostates were quickly excised. […] O2 and 5% CO2.
Isometric tension was recorded with a force displacement transducer (UGO BASILE, Model 7004, Italy). After the equilibration period, the strips were primed twice by adding 10 μM of the agonist, phenylephrine, to reach 80-100% of maximum contraction. […] The relaxation on rat prostate by KMUP-1 (0.01-100 μM) and tamsulosin (0.001 nM-100 μM) were also tested by their combination with sildenafil (0.1 μM), respectively. In isolated prostate strips, while stable constriction to phenylephrine was reached, sildenafil (0.1 μM) was pre-incubation for 30 minutes, before the cumulative addition of KMUP-1 (0.01-100 μM) or tamsulosin (0.001 nM-100 μM) to isolated prostate strips. In another experiment, to examine the possible mechanism of action of KMUP-1, rat prostates were pretreated with ODQ (1H-[1,2,4]oxadiazolo[4,3-a]quinoxalin-1-one, 10 μM, sGC inhibitor), RP-8pCPT-cGMPs (10 μM, PKG inhibitor), glibenclamide (10 μM, KATP channel blocker), 4-AP (4-aminopyridine, 100 μM, voltage-dependent K^+ channel blocker), apamin (1 μM, Ca^2+-dependent K^+ channel blocker) and charybdotoxin (ChTX) (0.1 μM, Ca^2+-dependent K^+ channel blocker) for 30 minutes before addition of KMUP-1 (100 μM).

A further assay relates to PKA. As to the kind of experiment: Western blot of PKA expression in rat prostate. As to the method: Prostate strips were incubated with KMUP-1 (10-100 μM), sildenafil (100 μM) and zaprinast (100 μM) in 10 mL Tyrode solution aerated with 95% O2 and 5% CO2 for 1 hour. To examine the possible mechanisms of KMUP-1 action, the rat prostate were pretreated with ODQ (10 μM), SQ22536 (10 μM) and RP-8pCPT-cGMPs (10 μM) for 30 minutes prior to the addition of KMUP-1 (100 μM).
(§1) In order to examine the expression of Rho kinase in prostate, the prostate strips were pre-incubated with phenylephrine (10 μM) for 30 minutes. After a pre-treatment of phenylephrine, KMUP-1 (10-100 μM) and Y-27632 (10 μM) were further incubated for 30 minutes. After the incubation time, the prostate were extracted with protein extraction reagent (Pierce Biotechnology, Inc., Rockford, Ill., USA.). The PZ-HPV-7 cells were incubated with and without KMUP-1 (0.1-10 μM) at 30 minutes, 8 and 24 hours. They were then washed rapidly with ice-cold PBS, incubated with protein extraction reagent, and scraped from the plates. The prostate tissues and cells were sonicated three times for 10 second each time and centrifuged at 13,000 rpm at 4° C. for 30 minutes. The protein concentrations of supernatants were determined, using bovine serum albumin as the standard. […] The intensity of the bands was measured by densitometry.

In assay [2] the test system is PZ-HPV-7 human prostatic epithelial cells. Briefly: Cell proliferation, MTT assay. It counts as cell-based. As to the method:
(§2) PZ-HPV-7, a human prostate epithelial cell line derived from normal peripheral zone tissue and transfected with human papillomavirus type 18, was obtained from the American Type Culture Collection (ATCC). Cells were grown in K-SFM medium supplemented with 100 U/mL penicillin, […], streptomycin 5 ng/ml, EGF human recombinant and 50 µg/mL BPE in 75-cm^2 flasks at 37° C. in a humidified atmosphere of […]. The culture medium was renewed every 2 days and cells were sub-cultured every 6 days. For the experiments, cells were seeded in 24-well plates at a density of 1×10^4 cells/well. After 24 hours and 48 hours, when cells were 80% confluent, KMUP-1 (1-100 μM) was added to the 24-well plates. Cell proliferation was measured using MTT assay (3-[4,5-dimethylthiazol-2-yl]-2,5-diphenyl-tetrazolium bromide, Sigma). The trypan blue […] exclusion assay was performed to determine the proportion of living and dead cells in 24 hours and 48 hours after treatment. After 24 hours and 48 hours of treatment with KMUP-1 (1-100 μM), attached cells were collected by trypsinization. Cells were counted in a hemocytometer using equal volume of cell suspension and trypan blue solution (0.2% in PBS).
(In general: Formazan colour is commonly taken as a measure of viable cells.)

For assay [3] the test system is unchanged. Briefly: Trypan blue exclusion assay. Particulars: 1-100 μM, 24 and 48 hours. It counts as cell-based. As to the method: as §2
The next assay deals with p21. Briefly: Western blot of p21 protein in PZ-HPV-7 cells. It counts as cell-based, human. Particulars: 1, 10 μM, until 24 hours. As to the method:
as §1, with “standard. Tissue and cell extract protein were then boiled at a ratio of 4:1 with sample buffer (100 mM Tris, pH 6.8, 20% glycerol, 4% SDS, and 0.2% bromphenol blue). 40-60 μg protein was used in this experiment. Electrophoresis was performed using 10 or 12% SDS-polyacrylamide gel electrophoresis and then transferred to nitrocellulose membranes (Millipore Corporation, Billerica, Mass.).” for “standard.”
A general note: Immunoblotting shows a protein as a band on a membrane.

Turning to `Cn1c(=O)c2c(ncn2CCN2CCN(c3ccccc3Cl)CC2)n(C)c1=O` [KMUP-1, 7-[2-[4-(2-Chlorobenzene)piperazinyl]ethyl]-1,3-dimethyl xanthine], in the assay on a1-adrenoceptor, the “apparent pA2” value is 7.82±0.33. The relaxation is 110.00±5.09% in assay [1] (10 μM, 1 hour, phenylephrine 10 μM pre-contracted); 112.50±7.84% in assay [1] (KMUP-1 100 μM, pre-incubation with ODQ 10 μM); 128.00±4.41% in assay [1] (KMUP-1 100 μM, pre-incubation with RP-8pCPT-cGMPs 10 μM); 122.00±3.74% in assay [1] (KMUP-1 100 μM, with 4-AP 100 μM); 126.00±9.09% in assay [1] (KMUP-1 100 μM, with apamin 1 μM); 138.00±7.01% in assay [1] (KMUP-1 100 μM, with charybdotoxin 0.1 μM). Also, the relaxation in assay [1] (KMUP-1 100 μM, with glibenclamide 10 μM) worked out at 115.00±7.07%. Further, the relaxation activity in assay [1] (100 μM combined with sildenafil 0.1 μM) was found to be 190.00±10.14%. The relaxation ability in assay [1] (100 μM, phenylephrine 10 μM pre-contracted) is 179.00±5.35% and 179.00±5.3%. Besides, the “expression of PKA” value in the assay with PKA (100 μM) is listed as “significantly induces”; with PKA (KMUP-1 100 μM with SQ22536 10 μM), “reversed”. The cell growth in assay [2] (1 μM, 24 hours) is given as 82.00±3.03 % of control; in assay [2] (1 μM, 48 hours), 70.00±2.23 % of control; in assay [2] (10 μM, 24 hours), 80.03±1.52 % of control; in assay [2] (10 μM, 48 hours), 56.00±2.72 % of control; in assay [2] (100 μM, 24 hours), 79.00±1.35 % of control; in assay [2] (100 μM, 48 hours) it was 47.00±1.8 % of control. For the same compound, the “PZ-HPV-7 cell growth, Trypan blue assay” value in assay [3] was “dose- and time-dependent inhibition”. In the assay on p21, the “production of p21 protein levels” value is “potently induces”.
